This is an account of results in article PMC11345841, “Exploring 2-Sulfonylpyrimidine Warheads as Acrylamide Surrogates for Targeted Covalent Inhibition: A BTK Story” (Journal of Medicinal Chemistry, 2024).

Numbering of substitutions follows the chain as printed. Like-named read-outs stand apart in the source and are kept apart here.

Holding throughout (test): KINOMEscan ScanTK
Type in all cases: binding

One test addresses T1, FLT3(D835H) (Homo sapiens, UniProt P36888, D835H).
T1 construct: purchased Eurofins DiscoverX KINOMEscan (scanTK)
T1 sequence (P36888 27-993 D835H): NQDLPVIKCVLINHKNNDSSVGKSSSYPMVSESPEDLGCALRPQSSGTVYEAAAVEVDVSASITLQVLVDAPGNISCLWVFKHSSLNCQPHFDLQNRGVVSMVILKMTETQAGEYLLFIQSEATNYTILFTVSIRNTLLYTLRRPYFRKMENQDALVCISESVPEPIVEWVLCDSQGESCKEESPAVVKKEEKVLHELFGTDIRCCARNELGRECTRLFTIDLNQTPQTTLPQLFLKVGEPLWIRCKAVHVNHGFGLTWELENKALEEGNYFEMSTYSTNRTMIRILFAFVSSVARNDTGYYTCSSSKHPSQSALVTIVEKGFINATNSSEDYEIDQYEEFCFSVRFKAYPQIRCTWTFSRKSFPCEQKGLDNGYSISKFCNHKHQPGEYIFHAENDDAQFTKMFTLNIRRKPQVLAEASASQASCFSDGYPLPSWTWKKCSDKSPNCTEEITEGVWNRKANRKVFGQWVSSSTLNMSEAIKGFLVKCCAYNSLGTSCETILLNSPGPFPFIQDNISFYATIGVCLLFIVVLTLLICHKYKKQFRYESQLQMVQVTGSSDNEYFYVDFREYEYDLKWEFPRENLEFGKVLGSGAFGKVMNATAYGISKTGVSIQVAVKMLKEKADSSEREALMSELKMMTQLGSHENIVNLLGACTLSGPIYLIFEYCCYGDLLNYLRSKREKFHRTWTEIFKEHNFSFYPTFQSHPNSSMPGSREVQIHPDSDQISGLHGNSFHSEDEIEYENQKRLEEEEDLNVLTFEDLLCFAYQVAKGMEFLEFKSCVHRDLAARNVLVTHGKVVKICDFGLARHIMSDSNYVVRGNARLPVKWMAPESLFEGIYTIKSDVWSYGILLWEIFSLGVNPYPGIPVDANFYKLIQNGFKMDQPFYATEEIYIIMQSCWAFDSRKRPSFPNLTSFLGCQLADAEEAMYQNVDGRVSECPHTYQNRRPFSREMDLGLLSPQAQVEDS

In a further test the target is T2, INSR (Homo sapiens, UniProt P06213).
T2 construct: purchased Eurofins DiscoverX KINOMEscan (scanTK)
T2 sequence (P06213 28-1382): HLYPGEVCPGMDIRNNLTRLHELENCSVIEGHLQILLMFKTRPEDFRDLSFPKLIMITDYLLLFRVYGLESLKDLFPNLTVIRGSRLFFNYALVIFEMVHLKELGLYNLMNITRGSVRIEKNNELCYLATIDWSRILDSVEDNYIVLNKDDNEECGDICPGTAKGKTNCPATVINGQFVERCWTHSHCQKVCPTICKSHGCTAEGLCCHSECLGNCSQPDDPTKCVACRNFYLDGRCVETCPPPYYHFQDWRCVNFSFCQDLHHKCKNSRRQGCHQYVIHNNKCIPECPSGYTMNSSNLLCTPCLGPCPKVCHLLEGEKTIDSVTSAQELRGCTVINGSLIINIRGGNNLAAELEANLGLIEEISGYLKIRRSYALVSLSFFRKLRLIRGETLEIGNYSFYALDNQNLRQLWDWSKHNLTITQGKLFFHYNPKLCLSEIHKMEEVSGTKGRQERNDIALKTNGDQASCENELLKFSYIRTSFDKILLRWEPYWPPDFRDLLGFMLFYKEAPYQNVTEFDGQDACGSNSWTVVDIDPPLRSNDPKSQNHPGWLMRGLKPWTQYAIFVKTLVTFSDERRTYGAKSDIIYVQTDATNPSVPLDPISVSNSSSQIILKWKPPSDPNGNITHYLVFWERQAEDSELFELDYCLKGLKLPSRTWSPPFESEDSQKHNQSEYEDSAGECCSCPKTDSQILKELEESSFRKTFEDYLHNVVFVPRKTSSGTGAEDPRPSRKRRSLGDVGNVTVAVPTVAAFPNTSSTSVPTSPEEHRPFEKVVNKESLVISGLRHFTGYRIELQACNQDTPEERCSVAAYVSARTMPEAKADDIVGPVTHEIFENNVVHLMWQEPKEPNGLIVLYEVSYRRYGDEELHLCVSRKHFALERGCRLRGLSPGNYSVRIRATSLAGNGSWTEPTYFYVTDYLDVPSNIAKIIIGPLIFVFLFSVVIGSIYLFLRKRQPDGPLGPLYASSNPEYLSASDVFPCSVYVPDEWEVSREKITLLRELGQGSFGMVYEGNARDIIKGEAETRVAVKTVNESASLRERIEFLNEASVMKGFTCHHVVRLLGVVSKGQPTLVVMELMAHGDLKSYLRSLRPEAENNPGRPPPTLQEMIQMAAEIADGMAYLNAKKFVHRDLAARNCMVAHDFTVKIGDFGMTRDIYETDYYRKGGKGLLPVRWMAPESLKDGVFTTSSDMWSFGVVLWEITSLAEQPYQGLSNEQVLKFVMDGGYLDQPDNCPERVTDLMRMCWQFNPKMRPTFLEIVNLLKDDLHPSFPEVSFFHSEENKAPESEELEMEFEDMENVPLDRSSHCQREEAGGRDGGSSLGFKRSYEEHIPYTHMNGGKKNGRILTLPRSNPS

For a further test, the target named is T3, RET(V804M) (Homo sapiens, UniProt P07949, V804M).
T3 construct: purchased Eurofins DiscoverX KINOMEscan (scanTK)
T3 sequence (P07949 29-1114 V804M): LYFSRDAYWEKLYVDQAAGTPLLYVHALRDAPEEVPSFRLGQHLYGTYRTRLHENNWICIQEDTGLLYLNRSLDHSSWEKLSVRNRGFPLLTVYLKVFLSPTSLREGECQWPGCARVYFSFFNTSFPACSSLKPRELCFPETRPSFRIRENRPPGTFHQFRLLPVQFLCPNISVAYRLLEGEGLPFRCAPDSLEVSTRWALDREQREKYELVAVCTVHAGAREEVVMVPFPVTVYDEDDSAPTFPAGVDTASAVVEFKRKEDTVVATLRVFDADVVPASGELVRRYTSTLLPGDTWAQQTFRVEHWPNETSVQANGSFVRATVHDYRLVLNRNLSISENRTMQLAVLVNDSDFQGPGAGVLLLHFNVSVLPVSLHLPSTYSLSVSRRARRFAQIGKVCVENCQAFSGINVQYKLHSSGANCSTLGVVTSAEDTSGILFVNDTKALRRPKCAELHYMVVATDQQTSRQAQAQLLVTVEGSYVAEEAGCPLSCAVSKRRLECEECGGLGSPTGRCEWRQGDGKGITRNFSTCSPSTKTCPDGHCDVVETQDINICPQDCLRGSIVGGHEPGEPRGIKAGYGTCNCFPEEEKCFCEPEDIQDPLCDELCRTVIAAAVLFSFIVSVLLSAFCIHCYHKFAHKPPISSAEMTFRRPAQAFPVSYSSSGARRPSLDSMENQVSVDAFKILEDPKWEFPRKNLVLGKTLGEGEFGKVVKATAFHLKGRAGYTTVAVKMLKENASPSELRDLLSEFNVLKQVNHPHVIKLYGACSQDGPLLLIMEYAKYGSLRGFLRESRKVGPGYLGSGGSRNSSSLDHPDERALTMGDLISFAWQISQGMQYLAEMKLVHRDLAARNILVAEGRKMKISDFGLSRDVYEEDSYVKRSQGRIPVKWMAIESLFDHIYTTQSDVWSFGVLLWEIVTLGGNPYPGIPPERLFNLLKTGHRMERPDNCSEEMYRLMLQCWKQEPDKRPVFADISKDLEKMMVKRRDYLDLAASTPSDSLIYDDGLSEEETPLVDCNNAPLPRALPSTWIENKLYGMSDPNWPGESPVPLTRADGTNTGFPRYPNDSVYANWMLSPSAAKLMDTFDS

The next test has as its target T4, SRMS (Homo sapiens, UniProt Q9H3Y6).
T4 construct: purchased Eurofins DiscoverX KINOMEscan (scanTK)
The conditions noted are these: for remaining binding at 1 µM: SRMS.

A further test has as its target T5, TXK (Homo sapiens, UniProt P42681).
T5 construct: purchased Eurofins DiscoverX KINOMEscan (scanTK)
T5 sequence (P42681 1-527): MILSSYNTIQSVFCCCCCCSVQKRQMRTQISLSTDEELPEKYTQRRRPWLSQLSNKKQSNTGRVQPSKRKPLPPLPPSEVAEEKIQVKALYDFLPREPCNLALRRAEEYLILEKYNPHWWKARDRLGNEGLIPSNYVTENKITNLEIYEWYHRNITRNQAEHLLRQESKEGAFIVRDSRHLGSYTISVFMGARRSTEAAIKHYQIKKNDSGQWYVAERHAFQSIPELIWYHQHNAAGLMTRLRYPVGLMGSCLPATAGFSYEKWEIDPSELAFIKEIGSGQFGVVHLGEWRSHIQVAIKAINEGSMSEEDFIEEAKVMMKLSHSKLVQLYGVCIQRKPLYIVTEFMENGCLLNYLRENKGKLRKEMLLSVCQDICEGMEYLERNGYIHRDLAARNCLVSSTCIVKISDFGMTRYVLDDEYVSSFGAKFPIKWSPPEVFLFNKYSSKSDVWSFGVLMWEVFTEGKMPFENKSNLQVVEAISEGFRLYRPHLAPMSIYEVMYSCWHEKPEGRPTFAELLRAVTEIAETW

The target in the next test is T6, EGFR (Homo sapiens, UniProt P00533).
T6 construct: purchased Eurofins DiscoverX KINOMEscan (scanTK)
T6 sequence (P00533 25-1210): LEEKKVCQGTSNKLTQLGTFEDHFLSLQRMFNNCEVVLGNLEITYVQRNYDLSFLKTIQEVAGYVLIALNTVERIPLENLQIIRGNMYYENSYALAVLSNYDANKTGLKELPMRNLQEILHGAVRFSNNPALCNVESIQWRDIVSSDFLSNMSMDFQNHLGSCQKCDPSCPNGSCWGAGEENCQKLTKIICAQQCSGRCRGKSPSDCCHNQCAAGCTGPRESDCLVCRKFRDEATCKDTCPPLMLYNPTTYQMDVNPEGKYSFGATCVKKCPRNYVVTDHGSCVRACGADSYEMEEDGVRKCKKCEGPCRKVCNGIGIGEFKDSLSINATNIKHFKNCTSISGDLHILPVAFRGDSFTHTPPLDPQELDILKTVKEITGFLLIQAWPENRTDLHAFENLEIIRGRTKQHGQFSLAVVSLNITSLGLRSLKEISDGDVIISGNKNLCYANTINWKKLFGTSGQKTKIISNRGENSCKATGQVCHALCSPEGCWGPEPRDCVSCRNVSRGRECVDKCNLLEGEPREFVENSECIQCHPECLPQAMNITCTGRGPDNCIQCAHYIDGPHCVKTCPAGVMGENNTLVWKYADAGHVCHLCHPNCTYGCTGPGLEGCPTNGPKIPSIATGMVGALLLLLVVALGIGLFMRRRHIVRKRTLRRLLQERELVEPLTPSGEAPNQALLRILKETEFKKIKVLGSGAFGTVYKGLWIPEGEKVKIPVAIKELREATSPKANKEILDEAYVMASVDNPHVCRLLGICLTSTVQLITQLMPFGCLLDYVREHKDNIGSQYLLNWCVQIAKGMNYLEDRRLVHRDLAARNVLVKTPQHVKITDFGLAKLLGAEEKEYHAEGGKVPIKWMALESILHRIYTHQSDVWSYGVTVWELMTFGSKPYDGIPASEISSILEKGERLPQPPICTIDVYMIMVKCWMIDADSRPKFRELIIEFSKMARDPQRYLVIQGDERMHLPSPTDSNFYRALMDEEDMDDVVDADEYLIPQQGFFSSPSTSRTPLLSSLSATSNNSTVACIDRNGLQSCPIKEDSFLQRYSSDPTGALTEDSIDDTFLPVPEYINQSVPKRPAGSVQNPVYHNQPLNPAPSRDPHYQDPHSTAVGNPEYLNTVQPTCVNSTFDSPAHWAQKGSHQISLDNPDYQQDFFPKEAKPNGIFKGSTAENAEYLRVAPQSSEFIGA
The note with it: for difference in %Control versus reference compound Ib at 1 µM / remaining binding at 1 µM: EGFR; for inhibition at 1 µM: ScanTK, WT EGFR.

The target of another test is T7, FLT3(D835Y) (Homo sapiens, UniProt P36888, D835Y).
T7 construct: purchased Eurofins DiscoverX KINOMEscan (scanTK)
T7 sequence (P36888 27-993 D835Y): T1 sequence (P36888 27-993 D835H) with H809Y

T4 sequence (Q9H3Y6 whole entry): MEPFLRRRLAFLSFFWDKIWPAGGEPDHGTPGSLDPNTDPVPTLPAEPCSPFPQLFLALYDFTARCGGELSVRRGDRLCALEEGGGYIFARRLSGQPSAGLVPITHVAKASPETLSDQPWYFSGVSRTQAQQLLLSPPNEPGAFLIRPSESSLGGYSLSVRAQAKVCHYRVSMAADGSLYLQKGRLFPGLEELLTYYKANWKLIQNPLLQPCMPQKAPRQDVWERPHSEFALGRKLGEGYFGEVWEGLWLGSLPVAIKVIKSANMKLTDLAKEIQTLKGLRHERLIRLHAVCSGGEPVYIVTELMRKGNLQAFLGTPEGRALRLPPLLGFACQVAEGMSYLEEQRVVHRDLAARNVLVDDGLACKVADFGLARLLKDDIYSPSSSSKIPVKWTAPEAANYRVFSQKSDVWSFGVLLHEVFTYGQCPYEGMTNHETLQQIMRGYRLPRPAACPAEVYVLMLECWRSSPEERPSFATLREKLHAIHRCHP

By inhibition is commonly meant the change of the read-out against control, counted positive when it falls. On to `C=CC(=O)N1CCC[C@@H](n2nc(-c3ccc(Oc4ccccc4)cc3)c3c(N)ncnc32)C1` [Compound 1g, Ibrutinib, reference compound], for which the remaining binding at 1 µM worked out at 36% on FLT3(D835H) (@1000nM, read-out: %Control); 36% at FLT3(D835H) (read-out: %Control @1000nM); 100% at INSR (@1000nM, read-out: %Control); 100% at INSR (read-out: %Control @1000nM); 100% on RET(V804M) (@1000nM, read-out: %Control); 100% at RET(V804M) (read-out: %Control @1000nM). Moreover, the remaining binding at 1 µM came out at 0% at SRMS (@1000nM, read-out: %Control); 0% at SRMS (read-out: %Control @1000nM); 8.7% at TXK (@1000nM, read-out: %Control); 8.7% on TXK (read-out: %Control @1000nM). Besides, the inhibition at 1 µM on SRMS (read-out: % inhibition, SRMS) was over 99%.

The compound `Cc1cnc(S(C)(=O)=O)nc1N1CCCC(n2nc(-c3ccc(Oc4ccccc4)cc3)c3c(N)ncnc32)C1` (stereo not drawn) [Compound 8a, 1-(1-(5-Methyl-2-(methylsulfonyl)pyrimidin-4-yl)piperidin-3-yl)-3-(4-phenoxyphenyl)-1H-pyrazolo[3,4-d]pyrimidin-4-amine] came in with a difference in %Control versus reference compound Ib at 1 µM on EGFR (@1000nM) of 52.8%. Besides, the remaining binding at 1 µM is 53% at EGFR (@1000nM, read-out: %Control); 53% on EGFR (read-out: %Control @1000nM); 68% at FLT3(D835H) (@1000nM, read-out: %Control); 68% on FLT3(D835H) (read-out: %Control @1000nM); 45% at FLT3(D835Y) (@1000nM, read-out: %Control); 45% at FLT3(D835Y) (read-out: %Control @1000nM). Besides, the remaining binding at 1 µM on INSR (@1000nM, read-out: %Control) is 95%; on INSR (read-out: %Control @1000nM), 95%; on RET(V804M) (@1000nM, read-out: %Control) it was 93%; on RET(V804M) (read-out: %Control @1000nM), 93%; at SRMS (@1000nM, read-out: %Control), 16%; on SRMS (read-out: %Control @1000nM), 16%. The remaining binding at 1 µM at TXK (@1000nM, read-out: %Control) worked out at 14%; at TXK (read-out: %Control @1000nM) it was 14%. The compound further registered an inhibition at 1 µM on EGFR of 47%. On FLT3(D835H) (@1000nM), this compound came in with a difference in %Control from compound Ib at 1 µM of 32%. Further, the difference in %Control versus compound Ib at 1 µM is -4% at FLT3(D835Y) (@1000nM) and -5% at INSR (@1000nM).

For `COC(=O)c1cnc(S(C)(=O)=O)nc1N1CCCC(n2nc(-c3ccc(Oc4ccccc4)cc3)c3c(N)ncnc32)C1` (stereo not drawn) [Compound 8b, Methyl 4-(3-(4-Amino-3-(4-phenoxyphenyl)-1H-pyrazolo[3,4-d]pyrimidin-1-yl)piperidin-1-yl)-2-(methylsulfonyl)pyrimidine-5-carboxylate], at EGFR (@1000nM), the difference in %Control versus reference compound Ib at 1 µM was 32.8%. The remaining binding at 1 µM was 33% at EGFR (@1000nM, read-out: %Control); 33% on EGFR (read-out: %Control @1000nM); 74% on FLT3(D835H) (@1000nM, read-out: %Control); 74% at FLT3(D835H) (read-out: %Control @1000nM); 67% on FLT3(D835Y) (@1000nM, read-out: %Control); 67% at FLT3(D835Y) (read-out: %Control @1000nM). The remaining binding at 1 µM is 95% at INSR (@1000nM, read-out: %Control); 95% on INSR (read-out: %Control @1000nM); 90% at RET(V804M) (@1000nM, read-out: %Control); 90% at RET(V804M) (read-out: %Control @1000nM); 27% at SRMS (@1000nM, read-out: %Control); 27% at SRMS (read-out: %Control @1000nM). Besides, the remaining binding at 1 µM was 11% on TXK (@1000nM, read-out: %Control) and 11% on TXK (read-out: %Control @1000nM). On EGFR, this compound displayed an inhibition at 1 µM of 67%. Also, the difference in %Control from compound Ib at 1 µM at FLT3(D835H) (@1000nM) turned out to be 38%. Further, the difference in %Control versus compound Ib at 1 µM on FLT3(D835Y) (@1000nM) is 18%; at INSR (@1000nM), -5%.

Turning to `CCOC(=O)c1cnc(S(C)(=O)=O)nc1N1CCC[C@@H](n2nc(-c3ccc(Oc4ccccc4)cc3)c3c(N)ncnc32)C1` [Compound 8c, Ethyl (R)-4-(3-(4-Amino-3-(4-phenoxyphenyl)-1H-pyrazolo[3,4-d]pyrimidin-1-yl)piperidin-1-yl)-2-(methylsulfonyl)pyrimidine-5-carboxylate], the difference in %Control versus reference compound Ib at 1 µM on EGFR (@1000nM) came to 42.8%. The remaining binding at 1 µM on EGFR (@1000nM, read-out: %Control) worked out at 43%; at EGFR (read-out: %Control @1000nM), 43%; on FLT3(D835H) (@1000nM, read-out: %Control), 96%; on FLT3(D835H) (read-out: %Control @1000nM), 96%; on FLT3(D835Y) (@1000nM, read-out: %Control) it was 99%; at FLT3(D835Y) (read-out: %Control @1000nM), 99%. Further, the remaining binding at 1 µM on INSR (@1000nM, read-out: %Control) is 100%; on INSR (read-out: %Control @1000nM), 100%; on RET(V804M) (@1000nM, read-out: %Control), 100%; at RET(V804M) (read-out: %Control @1000nM), 100%; on SRMS (@1000nM, read-out: %Control), 32%; at SRMS (read-out: %Control @1000nM), 32%. Also, the remaining binding at 1 µM on TXK (@1000nM, read-out: %Control) was found to be 12%; at TXK (read-out: %Control @1000nM), 12%. Moreover, on EGFR, the inhibition at 1 µM came out at 57%. For the same compound, at FLT3(D835H) (@1000nM), the difference in %Control from compound Ib at 1 µM was 60%. In addition, the difference in %Control versus compound Ib at 1 µM on FLT3(D835Y) (@1000nM) was 50%; on INSR (@1000nM) it was 0%.

For the compound `CNC(=O)c1cnc(S(C)(=O)=O)nc1N1CCCC(n2nc(-c3ccc(Oc4ccccc4)cc3)c3c(N)ncnc32)C1` (stereo not drawn) [Compound 8d, 4-(3-(4-Amino-3-(4-phenoxyphenyl)-1H-pyrazolo[3,4-d]pyrimidin-1-yl)piperidin-1-yl)-N-methyl-2-(methylsulfonyl)pyrimidine-5-carboxamide], the difference in %Control versus reference compound Ib at 1 µM on EGFR (@1000nM) worked out at 16.8%. Also, the remaining binding at 1 µM on EGFR (@1000nM, read-out: %Control) is 17%; at EGFR (read-out: %Control @1000nM), 17%; on FLT3(D835H) (@1000nM, read-out: %Control), 83%; at FLT3(D835H) (read-out: %Control @1000nM), 83%; at FLT3(D835Y) (@1000nM, read-out: %Control), 59%; at FLT3(D835Y) (read-out: %Control @1000nM) it was 59%. For the same compound, the remaining binding at 1 µM on INSR (@1000nM, read-out: %Control) came to 100%; on INSR (read-out: %Control @1000nM), 100%; on RET(V804M) (@1000nM, read-out: %Control), 100%; at RET(V804M) (read-out: %Control @1000nM), 100%; at SRMS (@1000nM, read-out: %Control) it was 6.5%; on SRMS (read-out: %Control @1000nM), 6.5%. Also, the remaining binding at 1 µM at TXK (@1000nM, read-out: %Control) was found to be 10%; at TXK (read-out: %Control @1000nM) it was 10%. The compound also had an inhibition at 1 µM at EGFR of 83%. At FLT3(D835H) (@1000nM), this compound registered a difference in %Control from compound Ib at 1 µM of 47%. The difference in %Control versus compound Ib at 1 µM was 10% on FLT3(D835Y) (@1000nM) and 0% on INSR (@1000nM).
